{"source": "ChEMBL document CHEMBL5505979", "about": "“Novel aminothiazoximone-corbelled ethoxycarbonylpyrimidones with antibiofilm activity to conquer Gram-negative bacteria through potential multitargeting effects” (Eur J Med Chem, 2024)", "key": {"Staphylococcus aureus [1]": {"tested_on": "Staphylococcus aureus", "assay": "Anti-bacterial activity against methicillin-resistant Staphylococcus aureus ATCC 43300 assessed as inhibition of bacterial growth", "assay_type": "functional", "details": "Staphylococcus aureus, ATCC 43300; read-out: MIC"}, "Staphylococcus aureus [2]": {"tested_on": "Staphylococcus aureus", "assay": "Anti-bacterial activity against Staphylococcus aureus CMCC (B) 26001 assessed as inhibition of bacterial growth", "assay_type": "functional"}, "Escherichia coli [3]": {"tested_on": "Escherichia coli", "assay": "Anti-bacterial activity against Escherichia coli JM109 assessed as inhibition of bacterial growth", "assay_type": "functional"}, "Escherichia coli [4]": {"tested_on": "Escherichia coli", "assay": "Anti-bacterial activity against Escherichia coli ATCC 25922 assessed as inhibition of bacterial growth", "assay_type": "functional"}, "Candida albicans": {"tested_on": "Candida albicans", "assay": "Anti-fungal activity against Candida albicans assessed as inhibition of fungal growth", "assay_type": "functional", "details": "Candida albicans; read-out: MIC"}, "Escherichia coli [5]": {"tested_on": "Escherichia coli", "assay": "Anti-bacterial activity against Escherichia coli ATCC 25922 assessed as inhibition of bacterial growth measured upto 9 hrs", "assay_type": "functional, organism-based"}, "Escherichia coli [6]": {"tested_on": "Escherichia coli", "assay": "Bactericidal activity against Escherichia coli ATCC 25922 assessed as bacterial killing at 1 to 8 times of MIC concentration measured upto 8 hrs by time-kill kinetics assay", "assay_type": "functional, organism-based"}, "[7]": {"assay": "Hemolysis in human RBC assessed as hemolysis rate at 128 times of MIC concentration for 6 hrs", "assay_type": "toxicity, cell-based, Erythrocyte", "details": "red blood cells, read-out: Activity"}, "BEAS-2B": {"tested_on": "BEAS-2B", "assay": "Cytotoxicity against human BEAS-2B cells assessed as cell viability at 0.064 mmol/L measured after 24 hrs", "assay_type": "toxicity, cell-based", "details": "64 µM"}, "Escherichia coli [8]": {"tested_on": "Escherichia coli", "assay": "Antibiofilm activity against Escherichia coli ATCC 25922 assessed as inhibition rate of bio-film formation at 8 times of MIC concentration in presence of sodium dodecyl sulfate by Crystal violet assay relative to control", "assay_type": "functional, organism-based"}, "Acinetobacter baumannii [9]": {"tested_on": "Acinetobacter baumannii", "assay": "Antibiofilm activity against Acinetobacter baumannii assessed as decrease in biofilm formation at MIC concentration relative to control", "assay_type": "functional", "parameters": "scale not given: the % may be the effect or the level left"}, "Escherichia coli [10]": {"tested_on": "Escherichia coli", "assay": "Antibiofilm activity against Escherichia coli ATCC 25922 assessed as clearance rate of mature biofilm at 8 times of MIC concentration relative to control", "assay_type": "functional"}, "Acinetobacter baumannii [11]": {"tested_on": "Acinetobacter baumannii", "assay": "Antibiofilm activity against Acinetobacter baumannii assessed as reduction of self-aggregation", "assay_type": "functional, organism-based"}, "Acinetobacter baumannii [12]": {"tested_on": "Acinetobacter baumannii", "assay": "Reduction of biofilm virulent factors in Acinetobacter baumannii assessed as decrease in hydrophobicity index", "assay_type": "functional, organism-based"}, "Escherichia coli [13]": {"tested_on": "Escherichia coli", "assay": "Reduction of biofilm virulent factors in Escherichia coli ATCC 25922 assessed as decrease in hydrophobicity index", "assay_type": "functional, organism-based"}, "Acinetobacter baumannii [14]": {"tested_on": "Acinetobacter baumannii", "assay": "Reduction of biofilm virulent factors in Acinetobacter baumannii assessed as decrease in extracellular polymeric substances (EPS) by measuring optical density at 490 nm at 1/2 times of MIC concentration by congo red binding assay (reference value: 0.188 to 0.192)", "assay_type": "functional"}, "Acinetobacter baumannii [15]": {"tested_on": "Acinetobacter baumannii", "assay": "Reduction of biofilm virulent factors in Acinetobacter baumannii assessed as decrease in extracellular polymeric substances (EPS) by measuring optical density at 490 nm at 1 times of MIC concentration by congo red binding assay (reference value: 0.188 to 0.192)", "assay_type": "functional"}, "Escherichia coli [16]": {"tested_on": "Escherichia coli", "assay": "Reduction of biofilm virulent factors in Escherichia coli ATCC 25922 assessed as decrease in extracellular polymeric substances (EPS) by measuring optical density at 490 nm at 4 times of MIC concentration by congo red binding assay (reference value: 0.028 to 0.031)", "assay_type": "functional"}, "Escherichia coli [17]": {"tested_on": "Escherichia coli", "assay": "Reduction of biofilm virulent factors in Escherichia coli ATCC 25922 assessed as decrease in extracellular polymeric substances (EPS) at 1/2 times of MIC concentration by congo red binding assay relative to control", "assay_type": "functional", "parameters": "scale not given: the % may be the effect or the level left"}, "Acinetobacter baumannii [18]": {"tested_on": "Acinetobacter baumannii", "assay": "Anti-bacterial activity against Acinetobacter baumannii assessed as growth inhibition by measuring optical density measured at 4 time of MIC in presence of 1/4 times of MIC of norfloxacin by Checkerboard assay (reference value: 0.152)", "assay_type": "functional"}, "Acinetobacter baumannii [19]": {"tested_on": "Acinetobacter baumannii", "assay": "Anti-bacterial activity against Acinetobacter baumannii assessed as growth inhibition by measuring optical density measured at 1 time of MIC in presence of 1/8 times of MIC of norfloxacin by Checkerboard assay (reference value: 0.157)", "assay_type": "functional"}, "Acinetobacter baumannii [20]": {"tested_on": "Acinetobacter baumannii", "assay": "Anti-bacterial activity against Acinetobacter baumannii assessed as growth inhibition by measuring optical density measured at 1 time of MIC in presence of 1/2 times of MIC of norfloxacin by Checkerboard assay (reference value: 0.157)", "assay_type": "functional"}, "Acinetobacter baumannii [21]": {"tested_on": "Acinetobacter baumannii", "assay": "Anti-bacterial activity against Acinetobacter baumannii assessed as growth inhibition by measuring optical density measured at 1/2 time of MIC in presence of 2 times of MIC of norfloxacin by Checkerboard assay (reference value: 0.152)", "assay_type": "functional"}, "Acinetobacter baumannii [22]": {"tested_on": "Acinetobacter baumannii", "assay": "Anti-bacterial activity against Acinetobacter baumannii assessed as growth inhibition by measuring optical density measured at 1/4 time of MIC in presence of 1 times of MIC of norfloxacin by Checkerboard assay (reference value: 0.152)", "assay_type": "functional"}, "Escherichia coli [23]": {"tested_on": "Escherichia coli", "assay": "Anti-bacterial activity against Escherichia coli ATCC 25922 assessed as growth inhibition by measuring optical density measured at 4 time of MIC in presence of 1/8 times of MIC of norfloxacin by Checkerboard assay (reference value: 0.125)", "assay_type": "functional"}, "Escherichia coli [24]": {"tested_on": "Escherichia coli", "assay": "Anti-bacterial activity against Escherichia coli ATCC 25922 assessed as growth inhibition by measuring optical density measured at 4 time of MIC in presence of 1 times of MIC of norfloxacin by Checkerboard assay (reference value: 0.125)", "assay_type": "functional"}, "Escherichia coli [25]": {"tested_on": "Escherichia coli", "assay": "Anti-bacterial activity against Escherichia coli ATCC 25922 assessed as growth inhibition by measuring optical density measured at 1 time of MIC in presence of 1 times of MIC of norfloxacin by Checkerboard assay (reference value: 0.125)", "assay_type": "functional"}, "Escherichia coli [26]": {"tested_on": "Escherichia coli", "assay": "Anti-bacterial activity against Escherichia coli ATCC 25922 assessed as growth inhibition by measuring optical density measured at 1 time of MIC in presence of 2 times of MIC of norfloxacin by Checkerboard assay (reference value: 0.125)", "assay_type": "functional"}, "Escherichia coli [27]": {"tested_on": "Escherichia coli", "assay": "Anti-bacterial activity against Escherichia coli ATCC 25922 assessed as growth inhibition by measuring optical density measured at 1/2 time of MIC in presence of 1/2 times of MIC of norfloxacin by Checkerboard assay (reference value: 0.124)", "assay_type": "functional"}, "Escherichia coli [28]": {"tested_on": "Escherichia coli", "assay": "Anti-bacterial activity against Escherichia coli ATCC 25922 assessed as growth inhibition by measuring optical density measured at 1/2 time of MIC in presence of 2 times of MIC of norfloxacin by Checkerboard assay (reference value: 0.124)", "assay_type": "functional"}, "Escherichia coli [29]": {"tested_on": "Escherichia coli", "assay": "Anti-bacterial activity against Escherichia coli ATCC 25922 assessed as growth inhibition by measuring optical density measured at 1/4 time of MIC in presence of 1/8 times of MIC of norfloxacin by Checkerboard assay (reference value: 0.128)", "assay_type": "functional"}, "Acinetobacter baumannii [30]": {"tested_on": "Acinetobacter baumannii", "assay": "Induction of membrane disturbance in Acinetobacter baumannii assessed as increase in fluorescence intensity at 0.5 to 8 times of MIC concentration measured after 90 mins by Propidium iodide assay", "assay_type": "functional, organism-based"}, "Escherichia coli [31]": {"tested_on": "Escherichia coli", "assay": "Induction of membrane depolarization Escherichia coli ATCC 25922 assessed as increase in red fluorescence intensity at 0.5 to 8 times of MIC concentration measured after 6 hrs by […] assay", "assay_type": "functional, organism-based"}, "Acinetobacter baumannii [32]": {"tested_on": "Acinetobacter baumannii", "assay": "Induction of intracellular ROS accumulation in Acinetobacter baumannii assessed as larger green fluorescence densities at 1/4 to 2 times of MIC by microscopic imaging assay", "assay_type": "functional, organism-based"}, "Calf thymus DNA": {"tested_on": "Calf thymus DNA", "assay": "Binding affinity to calf thymus DNA assessed as compound/DNA binary complex by measuring increase in absorption at 260 nm by UV-vis/fluorescence spectroscopy", "assay_type": "nucleic-acid assay", "details": "Bos taurus"}}, "note": "The source made the active and inactive calls. No cut-off for these calls is given here.", "data": [{"smiles": "CCCCc1nc(Cl)c(C2NC(=O)NC(CN3CCN(C(=O)/C(=N/OC)c4csc(N)n4)CC3)=C2C(=O)OCC)[nH]1", "note": "(stereo not given)", "values": [{"measurement": "MIC", "setting": "Staphylococcus aureus [1]", "result": 13, "unit": "µM"}, {"measurement": "MIC", "setting": "Staphylococcus aureus [2]", "result": 26, "unit": "µM"}, {"measurement": "MIC", "setting": "Escherichia coli [3]", "result": 13, "unit": "µM"}, {"measurement": "MIC", "setting": "Escherichia coli [4]", "result": 7, "unit": "µM"}, {"measurement": "MIC", "setting": "Candida albicans", "result": 422, "unit": "µM"}, {"measurement": "Activity", "setting": "Escherichia coli [5]", "result": "Dose-Dependent Effect"}, {"measurement": "Activity", "setting": "Escherichia coli [6]", "result": "Active"}, {"measurement": "hemolysis at 6 h, 128 x MIC", "setting": "[7]", "result": 0.8, "unit": "%"}, {"measurement": "Activity", "setting": "BEAS-2B", "result": "Non-Toxic"}, {"measurement": "Activity", "setting": "Escherichia coli [8]", "result": "Active"}, {"measurement": "Activity", "setting": "Acinetobacter baumannii [9]", "result": 18.6, "unit": "%"}, {"measurement": "Activity", "setting": "Escherichia coli [10]", "result": 37.9, "unit": "%"}, {"measurement": "Activity", "setting": "Acinetobacter baumannii [11]", "result": "Dose-Dependent Effect"}, {"measurement": "Activity", "setting": "Acinetobacter baumannii [12]", "result": "Dose-Dependent Effect"}, {"measurement": "Activity", "setting": "Escherichia coli [13]", "result": "Active"}, {"measurement": "OD", "setting": "Acinetobacter baumannii [14]", "result": 0.173}, {"measurement": "OD", "setting": "Acinetobacter baumannii [15]", "result": 0.163}, {"measurement": "OD", "setting": "Escherichia coli [16]", "result": 0.061}, {"measurement": "Activity", "setting": "Escherichia coli [17]", "result": 64.4, "unit": "%"}, {"measurement": "OD", "setting": "Acinetobacter baumannii [18]", "result": 0.051}, {"measurement": "OD", "setting": "Acinetobacter baumannii [19]", "result": 0.116}, {"measurement": "OD", "setting": "Acinetobacter baumannii [20]", "result": 0.106}, {"measurement": "OD", "setting": "Acinetobacter baumannii [21]", "result": 0.051}, {"measurement": "OD", "setting": "Acinetobacter baumannii [22]", "result": 0.112}, {"measurement": "OD", "setting": "Escherichia coli [23]", "result": 0.108}, {"measurement": "OD", "setting": "Escherichia coli [24]", "result": 0.051}, {"measurement": "OD", "setting": "Escherichia coli [25]", "result": 0.056}, {"measurement": "OD", "setting": "Escherichia coli [26]", "result": 0.051}, {"measurement": "OD", "setting": "Escherichia coli [27]", "result": 0.107}, {"measurement": "OD", "setting": "Escherichia coli [28]", "result": 0.051}, {"measurement": "OD", "setting": "Escherichia coli [29]", "result": 0.122}, {"measurement": "Activity", "setting": "Acinetobacter baumannii [30]", "result": "Active"}, {"measurement": "Activity", "setting": "Escherichia coli [31]", "result": "Active"}, {"measurement": "Activity", "setting": "Acinetobacter baumannii [32]", "result": "Active"}, {"measurement": "Activity", "setting": "Calf thymus DNA", "result": "Active"}]}]}
